Results published in patent US8507538B2, “Selective heterocyclic sphingosine 1 phosphate receptor modulators” (Receptos, Inc., priority 2009, dated 2013).
Where two headings read alike, the source gives them in different places.

Experiments:
[1] = tested on: CD4 or CD8 positive T cells; experiment: Lymphopenia in rats; format: in vivo; conditions: rat, 24 h after a 0.2 mg/kg single dose; for inhibition in vivo at 0.2 mg/kg: CD8 positive, po
Protocol: In rats: Female rats (Simonsen Laboratories, Gilroy Calif.) were housed in an ALAAC accredited facility and the research was approved by the facilities Institutional Animal Care and Use Committee (IACUC). The animals were acclimated to the laboratory for at least 5 days prior to initiation of experiments. Rats (n=3/compound/time-point) were dosed by oral gavage with 1 mg/kg compound formulated in a vehicle consisting of 5% DMSO/5% Tween 20 and 90% 0.1N HCL. Control rats were dosed PO with the vehicle. Whole blood was collected from isoflurane anesthetized rats via the retro-orbital sinus and terminal samples were collected by cardiac puncture into EDTA. Whole blood was incubated with mouse anti-rat CD32 (BD #550271), PE-mouse anti-rat CD45R/B220 (BD #554881), PECy5-mouse anti-rat CD4 (BD #554839), and APC-mouse anti-rat CD8a (eBioscience #17-0084) for 30 minutes on ice. Red blood cells were lysed using BD Pharm. Lyse Lysing buffer (#555899) and white blood cells were analyzed with a BD FACSArray. Lymphopenia was expressed as the % of white blood cells that were CD4 or CD8 positive T cells. The overall lymphopenia response over 24 h was estimated by calculating the area under the effect curve (AUEC) using the linear trapezoidal rule. In some experiments, total lymphocyte counts were determined using a standard impediance based veterinary hematology analyzer (IDEXX Preclinical Research Services, Sacramento, Calif.).
The percentage of lymphopenia at 24 h after a 0.2 mg/kg single dose regiment is reported. […] N/A is not available.

[2] = tested on: CD4 or CD8 positive T cells; experiment: Lymphopenia in rats; format: in vivo; conditions: rat, at 24 h after a 3-5 day dosing regimen
[3] = molecular target: T1, S1P5 (Homo sapiens, UniProt Q9H228); experiment: Specificity over other S1P receptors: S1P5-bla TANGO U2OS; format: cell-based; conditions: without Forskolin, FreeStyle Expression medium; read-out: S1P5 agonist value (EC50)
T1 construct: Tango fusion (own knowledge: TEV protease site + GAL4-VP16 transcription factor fused to the receptor's C-terminus); host or cells: Tango bla U2OS
Protocol: (§1) Cells were seeded into 384-well black wall/clear bottom plates at 10^4 cells/well/19.5 μl assay media (DMEM-phenol free, 0.5% charcoal/dextran stripped serum, 2 mM glutamine, 0.1 mM NEAA, 1 mM Na-Pyruvate, 25 mM Hepes) and incubated for 18 hrs at 37° C. in 5% CO2. Dose response curves (10-point) were generated in 10 mM Hepes, 0.1% Pluronic F127, in the presence of Forskolin. Cells were treated with 0.5 μl compound in the presence of 2 μM Forskolin for 4 hrs at 37° C. The FRET-based β-lactamase fluorescent substrate (LiveBLAzer™ FRET B/G Loading Kit CC4-AM; Invitrogen) was prepared according to manufacturer's directions, and incubated with cells for 2 hrs at room temperature. Plates were read at Ex:410/Em:458 and Ex:410/Em:522, and the response ratio determined. Data was analyzed by non-linear regression to determine the EC50 for inhibition of Forskolin induced cAMP.
(§2) To assess compound specificity on other S1P receptors the following cell lines were used: S1P2 CRE-bla CHOK1, S1P3-Gα15 NFAT-bla HEK293T (Invitrogen), S1P4-bla TANGO U2OS (Invitrogen), S1P5-bla TANGO U2OS (Invitrogen). The same assay set up for S1P1 was used but without Forskolin. S1P4 and S1P5 assays were performed in FreeStyle Expression medium (Invitrogen). S1P5 cells were incubated for 48 hrs in prior to treatment with compound.

[4] = molecular target: T2, S1P2 (Homo sapiens, UniProt O95136); experiment: Specificity over other S1P receptors: S1P2 CRE-bla CHOK1; format: cell-based; conditions: without Forskolin; read-out: S1P2 agonist value (EC50)
T2 construct: expressed in transfected cells; host or cells: CRE-bla CHOK1
Protocol: as §1, §2

[5] = molecular target: T3, S1P4 (Homo sapiens, UniProt O95977); experiment: Specificity over other S1P receptors: S1P4-bla TANGO U2OS; format: cell-based; conditions: without Forskolin, FreeStyle Expression medium; read-out: S1P4 agonist value (EC50)
T3 construct: Tango fusion (own knowledge: TEV protease site + GAL4-VP16 transcription factor fused to the receptor's C-terminus); host or cells: Tango bla U2OS
T3 sequence (O95977 1-384): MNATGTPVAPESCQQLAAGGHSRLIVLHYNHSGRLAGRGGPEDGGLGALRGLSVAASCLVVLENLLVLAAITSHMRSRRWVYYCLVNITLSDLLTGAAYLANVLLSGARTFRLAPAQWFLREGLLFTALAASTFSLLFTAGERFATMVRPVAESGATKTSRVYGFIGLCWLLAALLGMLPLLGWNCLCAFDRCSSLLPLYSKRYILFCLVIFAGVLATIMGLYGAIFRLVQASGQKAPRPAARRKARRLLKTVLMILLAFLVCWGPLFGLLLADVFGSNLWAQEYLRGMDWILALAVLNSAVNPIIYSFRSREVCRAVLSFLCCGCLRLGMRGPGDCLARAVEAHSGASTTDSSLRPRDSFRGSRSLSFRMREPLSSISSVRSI
Protocol: as §1, §2

[6] = molecular target: S1P1/EDG1 (Homo sapiens, UniProt P21453); experiment: S1P1 CRE-bla CHOK1 reporter assay (inhibition of Forskolin induced cAMP); format: cell-based
In short: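 Stable CRE-bla CHO-K1 clone expressing human S1P1, serum-starved (0.5% stripped serum) 18 h, then treated with compound (10-point curve) plus 2 μM forskolin for 4 h at 37 °C. β-lactamase FRET ratio (458/522 nm) read after 2 h substrate loading; EC50 for inhibition of forskolin-induced cAMP by non-linear regression.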

[7] = molecular target: T4, S1P3 (Homo sapiens, UniProt Q99500); experiment: Specificity over other S1P receptors: S1P3-Gα15 NFAT-bla HEK293T; format: cell-based; conditions: without Forskolin; read-out: S1P3 agonist value (EC50)
T4 construct: host or cells: NFAT-bla HEK293T co-expressing Gα15
Protocol: as §1, §2

[8] = Table 3, read-out: S1P1 agonist value (EC50)

Chain of S1P1/EDG1 (P21453 whole entry): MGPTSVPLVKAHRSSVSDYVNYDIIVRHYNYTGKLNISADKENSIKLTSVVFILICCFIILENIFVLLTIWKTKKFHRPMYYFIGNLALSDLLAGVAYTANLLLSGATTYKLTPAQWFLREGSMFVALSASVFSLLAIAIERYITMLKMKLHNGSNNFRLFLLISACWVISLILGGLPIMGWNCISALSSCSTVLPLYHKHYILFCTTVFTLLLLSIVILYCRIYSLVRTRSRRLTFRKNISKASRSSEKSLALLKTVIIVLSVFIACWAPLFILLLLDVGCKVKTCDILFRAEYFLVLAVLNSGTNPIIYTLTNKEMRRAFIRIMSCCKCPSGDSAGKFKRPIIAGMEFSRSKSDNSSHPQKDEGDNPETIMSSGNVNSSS
T1 sequence (Q9H228 whole entry, the tested form may be a part): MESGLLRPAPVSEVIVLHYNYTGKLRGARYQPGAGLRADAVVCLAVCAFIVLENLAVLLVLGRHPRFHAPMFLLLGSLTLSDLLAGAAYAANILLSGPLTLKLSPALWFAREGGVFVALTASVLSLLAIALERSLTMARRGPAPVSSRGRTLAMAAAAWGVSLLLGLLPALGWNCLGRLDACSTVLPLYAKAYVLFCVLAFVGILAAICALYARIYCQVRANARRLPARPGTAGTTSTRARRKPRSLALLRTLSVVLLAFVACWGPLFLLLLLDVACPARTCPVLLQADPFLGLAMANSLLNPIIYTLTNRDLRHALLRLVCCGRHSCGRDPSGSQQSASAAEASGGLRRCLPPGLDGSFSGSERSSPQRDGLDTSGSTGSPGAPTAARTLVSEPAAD
T4 sequence (Q99500 whole entry): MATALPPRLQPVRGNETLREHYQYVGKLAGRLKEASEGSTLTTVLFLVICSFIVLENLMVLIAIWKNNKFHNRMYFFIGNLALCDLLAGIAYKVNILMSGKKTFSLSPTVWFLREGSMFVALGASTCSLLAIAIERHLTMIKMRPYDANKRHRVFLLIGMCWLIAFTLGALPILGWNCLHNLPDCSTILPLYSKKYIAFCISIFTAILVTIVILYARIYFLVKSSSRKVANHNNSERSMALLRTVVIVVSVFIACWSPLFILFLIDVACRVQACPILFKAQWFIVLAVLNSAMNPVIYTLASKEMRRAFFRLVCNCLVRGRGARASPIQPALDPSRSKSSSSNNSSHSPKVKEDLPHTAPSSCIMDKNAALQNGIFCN
T2 sequence (O95136 whole entry, species assumed): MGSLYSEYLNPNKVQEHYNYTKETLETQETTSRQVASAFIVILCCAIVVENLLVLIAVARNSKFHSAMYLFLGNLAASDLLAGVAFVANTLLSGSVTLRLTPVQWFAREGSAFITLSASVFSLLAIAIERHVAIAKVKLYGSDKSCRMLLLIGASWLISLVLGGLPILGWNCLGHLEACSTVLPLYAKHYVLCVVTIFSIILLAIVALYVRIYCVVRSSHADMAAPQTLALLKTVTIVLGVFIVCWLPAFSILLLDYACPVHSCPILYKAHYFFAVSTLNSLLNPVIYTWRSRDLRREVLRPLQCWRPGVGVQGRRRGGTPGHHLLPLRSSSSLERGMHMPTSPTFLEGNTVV

Compound	% Lymphopenia after 24 h (0.2 mg/kg) [1] [%]	ED50, estimated dose needed to produce 50% lymphopenia [2] [mg/kg]	inhibition in vivo at 0.2 mg/kg [1] [%]	EC50 [3] [nM]	EC50 [4] [nM]	EC50 [5] [nM]	EC50 [6, 8] [nM]	EC50 ([6]; agonist activity range, Table 2, read-out: S1P1 ACTIVITY) [nM]	EC50 [7] [nM]	ED50 ([2]; CD8 positive, read-out: ED50, estimated dose needed to produce 50% lymphopenia) [mg/kg]
(R)-N-(4-(2-(3-cyano-4-isopropoxyphenyl)thiazol-5-yl)-2,3-dihydro-1H-inden-1-yl)sulfamide [Compound 166]	47	0.07								
(R)-N-(4-(2-(3-cyano-4-isopropoxyphenyl)thiazol-5-yl)-2,3-dihydro-1H-inden-1-yl)pyrrolidine-1-carboxamide [Compound 172]	22	0.20								
CC(C)Oc1ccc(-c2nnc(-c3cccc4c3CC[C@@H]4NS(N)(=O)=O)s2)cc1C#N [Compound 47, (S)-N-(4-(5-(3-cyano-4-isopropoxyphenyl)-1,3,4-thiadiazol-2-yl)-2,3-dihydro-1H-inden-1-yl)sulfamide]			17	22	> 10000	> 10000	0.03	< 0.05	> 10000	
(R)-2-(N-(4-(5-(3-cyano-4-isopropoxyphenyl)-1,3,4-thiadiazol-2-yl)-2,3-dihydro-1H-inden-1-yl)sulfamoyl)-N,N-dimethylacetamide [Compound 43]	40			444			0.07			
CC(C)Oc1ccc(-c2ncc(-c3cccc4c3CC[C@H]4NC(=O)N3CCOCC3)s2)cc1C#N [Compound 186, (R)-N-(4-(2-(3-cyano-4-isopropoxyphenyl)thiazol-5-yl)-2,3-dihydro-1H-inden-1-yl)morpholine-4-carboxamide]			25	126			0.41		> 10000	0.2
(R)-N-(4-(5-(3-cyano-4-isopropoxyphenyl)-1,3,4-thiadiazol-2-yl)-2,3-dihydro-1H-inden-1-yl)-2-hydroxyethanesulfonamide [Compound 46]	39			194		2170	0.25			
